# Columns and labels:
# PC-12 cells [1] = experiment: In vitro neuroprotective activity, glutamate injury model (CCK-8 viability); type: cell-based; conditions: Rattus norvegicus; compound 10 µM; PC-12 cells injured with glutamate (8 mM) for 2 h; 24-hour incubation; relative to model group; read-out: Improved Viability (%)
# Experimental: (§1) The in vitro neuroprotective models for evaluating the test compound were hydrogen peroxide injury and glutamate injury models. The PC-12 cells were seeded in a 96-well plate at a density of 1.5 × 10^4 cells/mL, 100 µL per well. The experiment included a blank group, a model group, and drug treatment groups. The hydrogen peroxide injury and glutamate injury models were stimulated for 2 h with a final concentration of 120 µM hydrogen peroxide or 8 mM glutamate, respectively. Subsequently, the cells in the blank group were cultured in complete medium, whereas the cells in the drug treatment groups were cultured by adding 10 µM test compound. After 24-hour incubation for all groups, 10 µL of CCK-8 was added to each well. 60 min later, the absorbance at 490 nm was measured using a microplate reader. The viability was calculated. Improved Viability = (Viability in Drug Treatment Group - Viability in Model Group)/(Viability in Model Group). Table 1 Protective Effects of Phthalazinone Compounds on Nerve Cell Injury Induced by Hydrogen Peroxide (120 µM)
# PC-12 cells [2] = experiment: In vitro neuroprotective activity, hydrogen peroxide injury model (CCK-8 viability); type: cell-based; conditions: Rattus norvegicus; compound 10 µM; PC-12 cells injured with hydrogen peroxide (120 µM) for 2 h; 24-hour incubation; relative to model group; read-out: Improved Viability (%)
# Experimental: as §1
# [3] = tested on: rats with ischemic stroke; experiment: In vivo anti-ischemic stroke activity, middle cerebral artery occlusion model; set-up: species or system SD rats
SMILES,activation at 10 µM (PC-12 cells [1]),activation at 10 µM (PC-12 cells [2]),also measured
"CC1=NN(c2ccccc2)C(=O)C1 [Edaravone, reference compound]",3.14 ± 0.85%,11.3 ± 2.15%,
"CCCCc1nn(CC2CC2)c(=O)c2c(OC)cccc12 [Compound 4, 2-(Cyclopropylmethyl)-4-butyl-8-methoxy-phthalazin-1(2H)-one]",9.75 ± 3.22%,23.4 ± 1.83%,
CCCCc1nn(CC2CCCCC2)c(=O)c2c(OC)cccc12 [Compound 5],14 ± 6.21%,61.9 ± 6.53%,
"CCCCc1nn(CC2CCCCC2)c(=O)c2c(OCCC)cccc12 [Compound 14, 2-(Cyclohexylmethyl)-4-butyl-8-propoxy-phthalazin-1(2H)-one]",3.16 ± 3.54%,6.68 ± 3.51%,
"CCCCc1nn(Cc2ccncc2)c(=O)c2c(OCCC)cccc12 [Compound 10, 2-(Pyridin-4-methylene)-4-butyl-8-propoxy-phthalazin-1(2H)-one]",,1.93 ± 2.37%,
"CCCCc1nn(CC)c(=O)c2c(OCC3CCCCC3)cccc12 [Compound 7, 2-Ethyl-4-butyl-8-(cyclohexylmethoxy)-phthalazin-1(2H)-one]",,0.81 ± 0.37%,
"CCCCc1nn(CCC)c(=O)c2c(OCCC)cccc12 [Compound 12, 2-Propyl-4-butyl-8-propoxy-phthalazin-1(2H)-one]",5.11 ± 2.33%,12.9 ± 6.03%,
"CCCCc1nn(Cc2ccc(F)cc2)c(=O)c2c(OCCC)cccc12 [Compound 11, 2-(4-Fluorobenzyl)-4-butyl-8-propoxy-phthalazin-1(2H)-one]",32.7 ± 6.21%,96.8 ± 8.64%,
"CCCCc1nn(Cc2ccccc2)c(=O)c2c(OCC3CCCCC3)cccc12 [Compound 8, 2-Benzyl-4-butyl-8-(cyclohexylmethoxy)-phthalazin-1(2H)-one]",7.99 ± 2.98%,12.1 ± 3.25%,
"CCCCc1n[nH]c(=O)c2c(OCCC)cccc12 [Compound 9, 4-Butyl-8-propoxy-phthalazin-1(2H)-one]",7.48 ± 3.07%,60.2 ± 5.87%,
"CCCCc1nn(CC2CC2)c(=O)c2c(OCCC)cccc12 [Compound 13, 2-(Cyclopropylmethyl)-4-butyl-8-propoxy-phthalazin-1(2H)-one]",47.8 ± 8.14%,3.14 ± 1.45%,
"CCCCc1nn(Cc2ccc3ccccc3c2)c(=O)c2c(OCCC)cccc12 [Compound 15, 2-(Naphthylmethyl)-4-butyl-8-propoxy-phthalazin-1(2H)-one]",,1.59 ± 1.13%,
"CCCCc1nn(CC)c(=O)c2c(OCc3ccc4ccccc4c3)cccc12 [Compound 20, 2-Ethyl-4-butyl-8-(naphthalene-2-methoxy)-phthalazin-1(2H)-one]",8.77 ± 3.01%,34 ± 3.92%,
"CCCCc1nn(CC)c(=O)c2c(OC)cccc12 [Compound 2, 2-Ethyl-4-butyl-8-methoxy-phthalazin-1(2H)-one]",0.04 ± 1.05%,35.8 ± 3.55%,
"CCCCc1nn(Cc2ccc(F)cc2)c(=O)c2c(OCC3CC3)cccc12 [Compound 17, 2-(4-Fluorobenzyl)-4-butyl-8-(cyclopropylmethoxy)-phthalazin-1(2H)-one]",12.2 ± 2.57%,33 ± 2.37%,"survival rate of rats with ischemia-reperfusion injury ([3]; intragastric 10, 30 and 60 mg/kg, once daily for 7 days, FIG. 1): effectively increase; body weight of rats ([3]; intragastric 10, 30 and 60 mg/kg, once daily for 7 days, FIG. 2): reverse the decrease trend; volume of cerebral infarction ([3]; intragastric 10, 30 and 60 mg/kg, once daily for 7 days, TTC staining, FIG. 3): reduce the volume of cerebral infarction in a dose-dependent manner; effects compared with positive control drug butylphthalide (200 mg/kg) ([3]; survival rate, body weight, infarction volume, Compound 17 at 10, 30, 60 mg/kg by gavage): superior"
